Laboratory results: US7425534B2, “Compositions and methods for modulating muscle cell and tissue contractility” (The Trustees of the University of Pennsylvania, priority 2000, dated 2008)

System: rat aortic rings
Experiment: Phenylepherine (PE)-induced contraction of isolated rat aortic rings (isometric tension)
Format: cell-based
Text: Male Sprague Dawley rats (250-275 g) were sacrificed by exsanguination and thoracic aortae were removed with care to avoid damage to the endothelium, dissected free of fat and connective tissue, and cut into transverse rings, each 5 mm in length (Kyong et al., 1992, Br. J. Pharmacol. 107:983-990; Yohtaro et al., 1987, Eur. J. Pharmacol. 131:75-78; Chang et al., 1992, Br. J. Pharmacol. 107:983-990; Oyama et al., 1986, Eur. J. Pharmacol. 132:75-78). The tissues were maintained in an oxygenated (95% O2; 5% CO2) solution of Krebs-Henseliet (KH) buffer (144 millimolar NaCl, 5.9 millimolar KCl, 1.6 millimolar CaCl2, 1.2 millimolar MgSO4, 1.2 millimolar KH2PO4, 25 millimolar NaHCO3, and 11.1 millimolar D-glucose). The aortic rings were mounted to record isometric tension in a 10 milliliter bath containing KH solution under continuous aeration. The aortic rings were equilibrated for 1.5 hours at 37° C. and maintained under a resting tension of 2 g throughout the experiment. Each aortic ring was then contracted by adding phenylepherine (PE) in stepwise increments raising the concentration of PE from 10^−10 molar to 10^−5 molar. […] In every experiment, aortic rings exposed to KH buffer alone were analyzed in parallel as controls. Isometric tension was evaluated using a force displacement transducer and recorded online using a computerized system (ExperimentiaAE, Budapest, Hungary).

Molecule: CNC[C@H](O)c1cccc(O)c1 [PE, phenylepherine, reference compound]
- EC50 (PE alone, K-H buffer, no uPA species): 29 nM

Molecule: GFD: growth factor domain of uPA which binds to uPAR, SEQ ID NO:2 (SNELHQVPSNCDCLNGGTCVSNKYFSNIHWCNCPKKFGGQHCEIDKS; listed as Homo sapiens)
- Effect upon PE-induced aortic contraction / vasoconstriction (10 nM uPA species (FIGS. 5A, 5B; GFD 10 nanomolar)): did not enhance contractility

Molecule: ATF: amino terminal fragment of urokinase, amino acids 1-135, growth factor domain plus kringle, SEQ ID NO:4
- Contractility enhancing activity in the presence of suPAR (10 nM ATF + 10 nM suPAR (FIG. 3)): abolished
- Potency at enhancing vascular smooth muscle tissue contractility relative to tcuPA (compare FIGS. 2 and 3): 6 fold

B1: uPA kringle: kringle domain of uPA, amino acids 47-135, SEQ ID NO:1 (protein, listed as Homo sapiens)
chain: KTCYEGNGHFYRGKASTDTMGRPCLPWNSATVLQQTYHAHRSDALQLGLGKHNYCRNPDNRRRPWCYVQVGLKPLVQECMVHDCADGK
- Direct induction of vasoconstriction (uPA kringle without PE effect (FIG. 4)): did not induce vasoconstriction directly
